Measurements from PubChem BioAssay (NCI).
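Compound exposure: 48 hours, 5 concentrations, 96-well plates. Abbreviation: GI50, concentration required for 50% inhibition of growth. Definition used: TGI = concentration required for complete inhibition of growth.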

Experiments:
Assay in all cases: inhibition of tumour cell growth, NCI panel, 48 h; in the data active = GI50 below about 0.43 µM; inactive = the rest
[1] = tested on: SW-620 colon
[2] = tested on: HS 578T breast
[3] = tested on: UACC-257 melanoma
[4] = tested on: HOP-92 NSCLC
[5] = tested on: ACHN renal
[6] = tested on: HCT-15 colon
[7] = tested on: IGROV1 ovarian
[8] = tested on: OVCAR-4 ovarian
[9] = tested on: T-47D breast
[10] = tested on: SK-MEL-5 melanoma
[11] = tested on: SK-OV-3 ovarian
[12] = tested on: RXF 393 renal
[13] = tested on: NCI-H522 lung
[14] = tested on: SN12C renal
[15] = tested on: CCRF-CEM leukemia
[16] = tested on: MALME-3M melanoma
[17] = tested on: HCC-2998 colon
[18] = tested on: U251 CNS
[19] = tested on: MDA-MB-468 breast
[20] = tested on: HL-60(TB) leukemia
[21] = tested on: 786-0 renal
[22] = tested on: BT-549 breast
[23] = tested on: SF-539 CNS
[24] = tested on: OVCAR-5 ovarian
[25] = tested on: NCI-H226 lung
[26] = tested on: SF-295 CNS
[27] = tested on: COLO 205 colon
[28] = tested on: A549 NSCLC
[29] = tested on: SNB-75 CNS
[30] = tested on: K-562 leukemia
[31] = tested on: SR leukemia
[32] = tested on: LOX IMVI melanoma
[33] = tested on: OVCAR-8 ovarian
[34] = tested on: MDA-MB-435
[35] = tested on: UO-31 renal
[36] = tested on: SK-MEL-28 melanoma
[37] = tested on: A498 renal
[38] = tested on: KM12 colon
[39] = tested on: NCI/ADR-RES ovarian
[40] = tested on: UACC-62 melanoma
[41] = tested on: HT29 colon
[42] = tested on: HOP-62 NSCLC
[43] = tested on: RPMI-8226 leukemia
[44] = tested on: HCT-116 colon
[45] = tested on: SK-MEL-2 melanoma
[46] = tested on: MCF7 breast
[47] = tested on: MOLT-4 leukemia
[48] = tested on: DU-145 prostate
[49] = tested on: EKVX NSCLC
[50] = tested on: TK-10 renal
[51] = tested on: PC-3 prostate
[52] = tested on: SF-268 CNS
[53] = tested on: MDA-MB-231 breast
[54] = tested on: OVCAR-3 ovarian
[55] = tested on: NCI-H23 lung
[56] = tested on: CAKI-1 renal
[57] = tested on: SNB-19 CNS
[58] = tested on: NCI-H460 lung
[59] = tested on: M14 melanoma

O=C1NC(=NC23CC4CC(CC(C4)C2)C3)N/C1=C\c1ccc2ncoc2c1
5.91 µM: TGI [27]
0.548 µM: TGI [19]
> 100 µM: TGI [1] | TGI [6] | TGI [9] | TGI [11] | TGI [14] | TGI [18] | TGI [21] | TGI [24] | TGI [25] | TGI [26] | TGI [28] | TGI [30] | TGI [32] | TGI [33] | TGI [34] | TGI [41] | TGI [42] | TGI [44] | TGI [46] | TGI [47] | TGI [48] | TGI [50] | TGI [51] | TGI [56] | TGI [57] | TGI [59]
1.51 µM: TGI [55]
> 91.7 µM: TGI [4]
3.71 µM: TGI [16]
0.477 µM: TGI [12]
> 76 µM: TGI [38]
5.63 µM: TGI [13]
> 34.4 µM: TGI [3]
2.48 µM: TGI [31]
12.8 µM: TGI [52]
28.5 µM: TGI [43]
5.65 µM: TGI [10]
> 44.8 µM: TGI [7]
4.2 µM: TGI [2]
4.56 µM: TGI [49]
0.919 µM: TGI [37]
active: GI50 [1] 0.318 µM | GI50 [2] 0.412 µM | GI50 [5] 0.21 µM | GI50 [6] 0.24 µM | GI50 [10] 0.144 µM | GI50 [12] 0.215 µM | GI50 [13] 0.23 µM | GI50 [14] 0.254 µM | GI50 [15] 0.267 µM | GI50 [18] 0.303 µM | GI50 [19] 0.169 µM | GI50 [20] 0.308 µM | GI50 [22] 0.16 µM | GI50 [23] 0.103 µM | GI50 [24] 0.322 µM | GI50 [27] 0.405 µM | GI50 [28] 0.283 µM | GI50 [29] 0.28 µM | GI50 [31] 0.0451 µM | GI50 [32] 0.239 µM | GI50 [33] 0.293 µM | GI50 [35] 0.358 µM | GI50 [36] 0.333 µM | GI50 [37] 0.312 µM | GI50 [38] 0.342 µM | GI50 [39] 0.253 µM | GI50 [40] 0.347 µM | GI50 [42] 0.413 µM | GI50 [43] 0.279 µM | GI50 [44] 0.0993 µM | GI50 [46] 0.324 µM | GI50 [47] 0.281 µM | GI50 [48] 0.315 µM | GI50 [51] 0.338 µM | GI50 [52] 0.412 µM | GI50 [53] 0.369 µM | GI50 [54] 0.243 µM | GI50 [55] 0.217 µM | GI50 [56] 0.391 µM | GI50 [57] 0.319 µM | GI50 [58] 0.385 µM | GI50 [59] 0.325 µM
1.32 µM: TGI [45]
7.53 µM: TGI [17]
> 43.3 µM: TGI [8]
1.4 µM: TGI [22] | TGI [29]
> 55.5 µM: TGI [58]
8.05 µM: TGI [53]
> 84.3 µM: TGI [54]
2.29 µM: TGI [20]
inactive: GI50 [3] 0.863 µM | GI50 [4] 0.511 µM | GI50 [7] 0.43 µM | GI50 [8] 0.902 µM | GI50 [9] 0.427 µM | GI50 [11] 4.04 µM | GI50 [16] 0.952 µM | GI50 [17] 0.588 µM | GI50 [21] 0.434 µM | GI50 [25] 0.475 µM | GI50 [26] 0.487 µM | GI50 [30] 0.589 µM | GI50 [34] 0.613 µM | GI50 [41] 1.52 µM | GI50 [45] 0.5 µM | GI50 [49] 0.469 µM | GI50 [50] 0.737 µM
1.83 µM: TGI [36]
1.39 µM: TGI [40]
0.474 µM: TGI [23]
5.2 µM: TGI [5]
1.21 µM: TGI [39]
